Reference: US20240294543A1, “CYCLOHEPTA-THIENO-DIAZEPINE DERIVATIVES AS GABA A GAMMA1 PAM” (Hoffmann-La Roche Inc., priority 2021, published 2024)
pKi: −log10 of the molar value. Like-named read-outs stand apart in the source and are kept apart here.

Tests used:
[1] = biological target: human GABAA α1β3γ2 receptor (Homo sapiens (Human), UniProt P14867+P18507); test: Radioligand binding assay, competition for [3H]Flumazenil, γ2-containing GABAA subtypes; settings: for γ2/γ1 Selectivity Ratio: Ki α1β3γ2 (nM)/Ki α2β2γ1 (nM); for LogSel: Log[Ki α1β3γ2 (nM)/Ki α2β2γ1 (nM)]
Method in brief: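 Competition against [3H]Flumazenil binding in HEK293F cells transiently expressing human α1β3γ2 receptors, pellets resuspended in mannitol buffer pH 7,2-7,4. Incubated to equilibrium 1 hour at 4° C, filtered and washed with ice-cold 50 mM Tris pH 7.5, bound radioactivity by liquid scintillation counting. Ki values are means of two determinations.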

[2] = biological target: h-GABA-A α2β2γ1 (Homo sapiens (Human), UniProt P47869+Q8N1C3); test: Two-electrode voltage clamp electrophysiology in Xenopus oocytes expressing GABAA receptors; format: cell-based; settings: for Efficacy (GABA) %: % modulation of GABA EC20 = 100*(Fold increase−1), compound at about 30-fold its Ki α2β2γ1; for Fold increase h-GABA-A α2β2γ1 oocyte @ 30-fold Ki: Xenopus oocytes, GABA EC20, compound at about 30-fold its Ki α2β2γ1
Method in brief: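 Xenopus oocytes injected with receptor subunit RNA and recorded 3–5 days later by two-electrode voltage clamp at −80 mV, room temperature, pH 7.4. GABA applied at EC20 for 1.5 min, with and without test compound. Efficacy = extremum of the point-by-point ratio of the two responses, expressed as % modulation of GABA EC20; ≥3 oocytes per concentration.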

[3] = biological target: human GABAA α2β2γ1 receptor (Homo sapiens (Human), UniProt P47869+Q8N1C3); test: Radioligand binding assay, competition for [3H]RO7239181, γ1-containing GABAA subtypes; settings: Ki h-GABAA α2β2γ1, membranes of HEK293F cells, [3H]RO7239181 20-30 nM
[4] = HEK293F cells, [3H]Flumazenil 1 nM, Table 1, read-out: Ki h-GABAA α1β3γ2

Row | SMILES | pKi [1] | γ2/γ1 Selectivity Ratio ([1]; Table 1) | LogSel ([1]; Table 1) | Efficacy (GABA) % [2] [%] | Fold increase h-GABA-A α2β2γ1 oocyte @ 30-fold Ki [2] | pKi ([3]; Table 1) | pKi ([3]; Table 2) | pKi [1, 4]
1 | Cc1nc2n(n1)-c1sc3c(c1C(c1c(F)cccc1F)=N[C@H]2C)COCCO3 [Example 28, (7S)-9-(2,6-difluorophenyl)-4,7-dimethyl-13,16-dioxa-18-thia-2,3,5,8-tetrazatetracyclo[8.8.0.02,6.011,17]octadeca-1(10),3,5,8,11(17)-pentaene] | 5.71 | 353.3 | 2.55 | 40 | 1.40 | 8.26 | 8.26 | –
2 | C[C@@H]1N=C(c2c(F)cccc2F)c2c(sc3c2COCCO3)-n2nc(C(=O)N3CC(OC(C)(C)C)C3)nc21 [Example 29, (3-tert-butoxyazetidin-1-yl)-[(7S)-9-(2,6-difluorophenyl)-7-methyl-13,16-dioxa-18-thia-2,3,5,8-tetrazatetracyclo[8.8.0.02,6.011,17]octadeca-1(10),3,5,8,11(17)-pentaen-4-yl]methanone] | – | 366.9 | 2.56 | 79 | 1.79 | 8.11 | 8.11 | 5.55
3 | Cc1nnc2n1-c1sc3c(c1C(c1c(F)cccc1F)=N[C@H]2C)COC[C@H](C)O3 [Example 30, (7S,15S)-9-(2,6-difluorophenyl)-3,7,15-trimethyl-13,16-dioxa-18-thia-2,4,5,8-tetrazatetracyclo[8.8.0.02,6.011,17]octadeca-1(10),3,5,8,11(17)-pentaene] | 5.74 | 49.6 | 1.70 | 150 | 2.50 | 7.43 | 7.43 | –
4 | CCOC1CN(C(=O)c2nc3n(n2)-c2sc4c(c2C(c2c(F)cccc2F)=N[C@H]3C)COCCO4)C1 [Example 31, [(7S)-9-(2,6-Difluorophenyl)-7-methyl-13,16-dioxa-18-thia-2,3,5,8-tetrazatetracyclo[8.8.0.02,6.011,17]octadeca-1(10),3,5,8,11(17)-pentaen-4-yl]-(3-ethoxyazetidin-1-yl)methanone] | – | 818.0 | 2.91 | 69 | 1.69 | 8.26 | 8.25 | 5.34
5 | Cc1nnc2n1-c1sc3c(c1C(c1c(F)cccc1F)=N[C@H]2C)OCCCC3 [Example 33, (7S)-9-(2,6-difluorophenyl)-3,7-dimethyl-12-oxa-18-thia-2,4,5,8-tetrazatetracyclo[8.8.0.02,6.011,17]octadeca-1(10),3,5,8,11(17)-pentaene] | 5.43 | 66.5 | 1.82 | 76 | 1.76 | 7.25 | 7.25 | –
6 | Cc1nnc2n1-c1sc3c(c1C(c1c(F)cccc1Cl)=N[C@H]2C)COCCO3 [Example 35, (7S)-9-(2-chloro-6-fluoro-phenyl)-3,7-dimethyl-13,16-dioxa-18-thia-2,4,5,8-tetrazatetracyclo[8.8.0.02,6.011,17]octadeca-1(10),3,5,8,11(17)-pentaene] | 5.40 | 209.5 | 2.32 | 61 | 1.61 | 7.73 | 7.73 | –
7 | C[C@@H]1N=C(c2c(F)cccc2F)c2c(sc3c2COCCO3)-n2nc(C(=O)NC3CC3)nc21 [Example 36] | – | 72.6 | 1.86 | 89 | 1.89 | 7.25 | 7.25 | 5.39
8 | CCNC(=O)c1nc2n(n1)-c1sc3c(c1C(c1c(F)cccc1F)=N[C@H]2C)COCCO3 [Example 37, (7S)-9-(2,6-difluorophenyl)-N-ethyl-7-methyl-13,16-dioxa-18-thia-2,3,5,8-tetrazatetracyclo[8.8.0.02,6.011,17]octadeca-1(10),3,5,8,11(17)-pentaene-4-carboxamide] | – | 121.1 | 2.08 | 86 | 1.86 | 7.47 | 7.47 | 5.39
9 | Cc1nc2n(n1)-c1sc3c(c1C(c1c(F)cccc1F)=N[C@H]2C)COC[C@H](C)O3 [Example 39, (7S,15S)-9-(2,6-difluorophenyl)-4,7,15-trimethyl-13,16-dioxa-18-thia-2,3,5,8-tetrazatetracyclo[8.8.0.02,6.011,17]octadeca-1(10),3,5,8,11(17)-pentaene] | 5.04 | 157.6 | 2.20 | 150 | 2.50 | 7.24 | 7.24 | –
10 | C[C@@H]1N=C(c2c(F)cccc2F)c2c(sc3c2COC[C@H](C)O3)-n2nc(C(=O)N3CC(F)C3)nc21 [Example 40, [(7S,15S)-9-(2,6-difluorophenyl)-7,15-dimethyl-13,16-dioxa-18-thia-2,3,5,8-tetrazatetracyclo[8.8.0.02,6.011,17]octadeca-1(10),3,5,8,11(17)-pentaen-4-yl]-(3-fluoroazetidin-1-yl)methanone] | – | 568.5 | 2.75 | 141 | 2.41 | 7.69 | 7.69 | 4.93
11 | C[C@@H]1N=C(c2c(F)cccc2F)c2c(sc3c2COC[C@H](C)O3)-n2nc(C(=O)N3CC(OC(C)(C)C)C3)nc21 [Example 41, (3-tert-butoxyazetidin-1-yl)-[(7S,15S)-9-(2,6-difluorophenyl)-7,15-dimethyl-13,16-dioxa-18-thia-2,3,5,8-tetrazatetracyclo[8.8.0.02,6.011,17]octadeca-1(10),3,5,8,11(17)-pentaen-4-yl]methanone] | – | 188.2 | 2.27 | 167 | 2.67 | 7.19 | 7.19 | 4.91
12 | CCc1nnc2n1-c1sc3c(c1C(c1c(F)cccc1F)=N[C@H]2C)COCCO3 [Example 42, (7S)-9-(2,6-difluorophenyl)-3-ethyl-7-methyl-13,16-dioxa-18-thia-2,4,5,8-tetrazatetracyclo[8.8.0.02,6.011,17]octadeca-1(10),3,5,8,11(17)-pentaene] | 5.37 | 134.9 | 2.13 | 137 | 2.37 | 7.50 | 7.50 | –
13 | C[C@@H]1N=C(c2c(F)cccc2F)c2c(sc3c2COCCO3)-n2c(C3CC3)nnc21 [Example 43, (7S)-3-cyclopropyl-9-(2,6-difluorophenyl)-7-methyl-13,16-dioxa-18-thia-2,4,5,8-tetrazatetracyclo[8.8.0.02,6.011,17]octadeca-1(10),3,5,8,11(17)-pentaene] | 5.27 | 227.2 | 2.36 | 94 | 1.94 | 7.63 | 7.63 | –
14 | CC(C)c1nnc2n1-c1sc3c(c1C(c1c(F)cccc1F)=N[C@H]2C)COCCO3 [Example 44, (7S)-9-(2,6-difluorophenyl)-3-isopropyl-7-methyl-13,16-dioxa-18-thia-2,4,5,8-tetrazatetracyclo[8.8.0.02,6.011,17]octadeca-1(10),3,5,8,11(17)-pentaene] | 5.19 | 220.4 | 2.34 | 116 | 2.16 | 7.54 | 7.54 | –
15 | C[C@@H]1N=C(c2c(F)cccc2F)c2c(sc3c2COCCO3)-n2nc(C(=O)NCC(C)(C)O)nc21 [Example 45, (7S)-9-(2,6-difluorophenyl)-N-(2-hydroxy-2-methyl-propyl)-7-methyl-13,16-dioxa-18-thia-2,3,5,8-tetrazatetracyclo[8.8.0.02,6.011,17]octadeca-1(10),3,5,8,11(17)-pentaene-4-carboxamide] | – | 232.1 | 2.37 | 101 | 2.01 | 7.87 | 7.87 | 5.50
16 | C[C@@H]1N=C(c2c(F)cccc2F)c2c(sc3c2COCCO3)-n2nc(C(=O)NC[C@@](C)(O)C(F)(F)F)nc21 [Example 46, (7S)-9-(2,6-difluorophenyl)-7-methyl-N-[(2R)-3,3,3-trifluoro-2-hydroxy-2-methyl-propyl]-13,16-dioxa-18-thia-2,3,5,8-tetrazatetracyclo[8.8.0.02,6.011,17]octadeca-1(10),3,5,8,11(17)-pentaene-4-carboxamide] | – | 284.3 | 2.45 | 84 | 1.84 | 7.82 | 7.82 | 5.36
